Key:
[1] = test system: Hematological cancer cell lines; assay: Resazurin viability, cell line panel; assay type: cell-based; conditions: read-out: EC50, average over cell lines
Procedure: (§1) Cells were seeded in 96- or 384-well plates and incubated for 3 days for combination experiments or 5 days for single-drug exposure experiments. Resazurin (R7017, SigmaAldrich) was added to a final concentration of 0.01 mg/ml resazurin and fluorescence was measured at ex530/em590 after incubation for 2, 4 or 6 h. Curves were fitted using XLfit software (IDBS) or Prism 8.0 (Graphpad Software), and EC50 values were determined.
(§2) Figure 3. The OGG1 inhibitor TH5487 is selectively toxic to oncogene-expressing cells and cancer cell lines. (A) Close-up view of ligand TH5487 (green) binding to human OGG1. Important residues in the binding site are marked, hydrogen bond interactions are shown in black dashed line, water (red sphere)-mediated interactions in grey dashed line. (B) Comparison between the binding of ligand TH5487 (green) to human OGG1 (gray) with the structure of TH5675 (pink) bound to mouse OGG1 (yellow, PDB 6G3Y). (C) Viability of BJ-Tert and BJ-Ras cells exposed to the indicated concentrations TH5487 for five days. Data are average ±SD of four technical replicates from two independent experiments. (D) Clonogenic survival of cell lines exposed to TH5487. The cancer cell lines ACHN and H460, and the non-transformed cell lines MRC5 and Ogg1^−/− mouse embryonic fibroblasts (MEF) were incubated for 6–11 days in the presence of the indicated concentrations TH5487, followed by colony enumeration. Data are average ±SD values of four technical replicates, representative of three independent experiments. (E) TH5487 selectively decreases viability of cancer cell lines. EC50-values of 34 cancer (red) and 7 non-transformed cell lines (blue). Cells were exposed to a dilution series of TH5487 for five days followed by a viability assessment using resazurin. All cell lines were tested in two to ten independent experiments. Each point represents the EC50-value from one experiment (average of two or three technical replicates). (F) Comparative analysis of EC50 values for TH5487 in cancer- and non-transformed cell lines, and CD34+ hematopoietic stem cells, CD34- fraction from cord blood or PBMCs from healthy donor blood. All primary blood cells were tested upon activation with Dynabeads/Phytohemagglutinin or not and exposed to a dilution series of TH5487 to calculate EC50 values by resazurin assay.

cancer cell lines = assay: Resazurin viability, cell line panel; assay type: cell-based
Procedure: as §1, §2

[2] = test system: non-transformed cell lines; assay: Resazurin viability, cell line panel; assay type: cell-based; conditions: Figure 3F, read-out: EC50 (loss of proliferation), average over cell lines
Procedure: as §1, §2

[3] = test system: primary blood cells (CD34+ cells, CD34- fraction from cord blood, PBMCs); assay: Resazurin viability of primary blood cells; assay type: cell-based, human
Procedure: as §1
Peripheral blood mononuclear Cells (PBMC) were isolated from peripheral whole blood from controls using Histopaque®-1077 (Sigma-Aldrich, San Luis, MO, USA) following the manufacturer's instructions. Briefly, peripheral blood was collected in heparin and diluted with equal amount of PBS. Next, blood was centrifuged with Histopaque®-1077 at 400 × g for 30 min at room temperature and the PBMC layer was recovered. All steps were processed within 4 h after blood extraction.
Isolation of total CD34+ cells was performed from umbilical cord blood samples (CB) from healthy donors distributed from Centro de Transfusión de la Comunidad de Madrid. All samples were collected under written consent and institutional review board agreement. CD34+ cells was obtained from mononuclear cells were separated by fractionation in Ficoll-hypaque according to manufacturer's recommendations (GE Healthcare). […]

A3 cells = assay: A3 cell numbers and viability; assay type: cell-based, human
Procedure: Figure 4. Anticancer properties overlap between OGG1 loss and OGG1 inhibitors. (A) Viability of T-cell acute […] leukemia cell lines treated for 5 days with the indicated doses TH5487. Data are average ±SD of independent experiments (A3, n = 5; Jurkat, n = 3; MOLT-4, n = 4; CCRF-CEM, n = 3). (B) Relative cell numbers and (C) viability (%) for A3 cells treated for 5 days with 10 μM TH5487. Data are average ±SD of six replicates from three independent experiments. (D) Induction of apoptosis in A3 cells treated for 72 h TH5487 and stained for Annexin V. Data are average ±SD of three independent experiments. (E) A3 cells transfected with shRNA targeting OGG1 were treated with doxycycline for 6 days and stained for Annexin V. Data are average ±SD of two independent experiments. (F) Scheme for recovery experiment in which A3 OGG1-shRNA cells or A3 cells were silenced or inhibited for 6 days with doxycycline (200 nM) or TH5487 (10 μM). […] Data are average ±SD of 2–6 technical replicates representative of two independent experiments (I). Scheme for off-target effect evaluation in which A3 OGG1-shRNA cells were exposed to doxycycline for six days and after that, cells were exposed to TH5487 (10 μM) for 48 h followed by measurements of cell numbers (J) and viability by trypan blue exclusion (K). Data are average ±SD of two technical replicates from four independent experiments. Statistical significance was determined using unpaired, two-sided t-tests (*P < 0.05, **P < 0.01, ***P < 0.001, ****P < 0.0001, ns, non-significant).

For `O=C(Nc1ccc(I)cc1)N1CCC(n2c(=O)[nH]c3c(Br)cccc32)CC1` [TH5487], the EC50 [1] was 14.7 ± 4.7 µM, the “Selectivity of growth inhibition, cancer vs non-transformed cell lines” value (cancer cell lines; large panel of cancer and non-transformed cell lines, 5 days) was “caused loss of viability in cancer cells while being better tolerated in non-transformed cell lines” and the EC50 (cancer cell lines; tested cancer cell lines, Figure 3F, read-out: EC50 (loss of proliferation), average over cell lines) was 17.9 ± 6.9 µM. For the same molecule, the EC50 [2] was 36.9 ± 7.5 µM, the “Tolerance by hematopoietic primary cells” value ([3]; CD34+ cells, resting and activated CD34- cells from umbilical cord blood, healthy donors) was “well tolerated” and the EC50 ([3]; primary blood cells from healthy donors, activated or not, read-out: EC50, average over primary blood cells) was 35.1 ± 20 µM. For the same molecule, the “Recovery of proliferation after release into fresh medium” value (A3 cells; A3 cells exposed for 6 days to 10 μM) was “able to divide normally”, the Cell viability (A3 cells; A3 cells, 10 μM, after 72 h) was “mild decrease in cell viability” and the “Proliferation (relative cell numbers)” value (A3 cells; A3 cells, 10 μM, up to 72 h) was “slower proliferation”.

— article PMC7708037, “Targeting OGG1 arrests cancer cell proliferation by inducing replication stress” (Nucleic Acids Research, 2020)
